Experiments:
[1] = tested on: reserpine-induced hypothermia mice; assay: Anti-reserpine action after oral administration of test compounds; assay type: in vivo, mice (ddY, male); details: 10 µmol/kg in saline, calculated from AUC of rectal temperature over 420 min versus vehicle, reserpine 3 mg/kg s.c. 18 hours before
Protocol: Reserpine-induced hypothemia mice (ddY, male, body weight 30 to 40 g) were prepared by the subcutaneous administration of reserpine in back side of the […] (3 mg/kg) at 18 hours before test compounds administration. Mice with their body temperature about 25 °C were used in the experiment. Test compounds were solubilized in saline and 0.2 ml (10 µmol/kg) of them were administered by sonde for oral administration. After the administration, rectal temperature was measured at 30, 60, 120, 180, 240, 300, […]. The area under curve (AUC) of the body temperature-time profile was calculated by the general trapezoidal method. In the control experiment, vehicle (saline) was administered to mice and the rectal temperature was measured by the same protocol.
Effective dose: Dose which can increase the average of body temperatures at 1 °C for 420 min in reserpine-induced hypothermia mice.

[2] = tested on: reserpine-induced hypothermia mice; assay: Anti-reserpine action after intravenous and intracerebroventricular administration of test compounds; assay type: in vivo, mice (ddY, male); details: calculated from AUC of rectal temperature over 180 min versus vehicle; for Dose which can increase the average of body temperatures at 1 °C for 180 min in reserpine-induced hypothermia mice, administered intracerebroventricularly: intracerebroventricular, 0.21 µmol/kg; for Dose which can increase the average of body temperatures at 1 °C for 180 min in reserpine-induced hypothermia mice, administered intravenously: intravenous, 1 µmol/kg
Protocol: Recerpine-induced hypothermia mice (ddY, male) were prepared by the administration of reserpine (3 mg/kg) at 18 hours before test compounds administration. Mice with their body temperature about 25 °C were used in the experiment. Test compounds were solubilized in saline and 0.1 ml (1 µmol/kg) of them were administered intravenously and 0.005 ml (0.21 µmol/kg) of them were administered intracerebroventricularly, respectively. After the administration, rectal temperature was measured at 30, 60, 120, and 180 min. The area under curve (AUC) of the body temperature-time profile was calculated by the general trapezoidal method. In the control experiment, vehicle (saline) was administered to mice intravenously or intracerebroventricularly and the rectal temperature was measured by the same protocol.
Effective dose: Dose which can increase the average of body temperatures at 1°C for 180 min in reserpine-induced hypothermia mice.

[3] = Change of blood glucose levels after administration of the test compounds to rats; assay type: in vivo, male Wistar rats; details: for blood glucose level as a percentage compared to the baseline level: 50 µmol/kg intravenously, vehicle-treated rats = 100 %
Protocol: Fasted male Wistar rats (250-350 g) were anaesthesized with urethane. Test compounds were solubilized in saline and administered intravenously (50 µmol/kg). Body temperature of rats were kept at 37 °C by a hot blanket. After the administration, blood was collected from jugular vein at 5, 15, 30, 60, 120, 180, 240, 300, 360, 420, and 480 min and blood glucose levels were measured (BM Test blood sugar. Wako Chemical Indus.). The blood glucose levels at each sampling time in vehicle (saline)-treated rats were defined as the baseline level (100 %). […]

[4] = time 0 min, fasted urethane-anaesthetized rats

| Compound | Dose which can increase the average of body temperatures at 1 °C for 420 min in reserpine-induced hypothermia mice (by oral) [1] [µmol/kg] | Dose which can increase the average of body temperatures at 1 °C for 180 min in reserpine-induced hypothermia mice, administered intracerebroventricularly [2] [µmol/kg] | Dose which can increase the average of body temperatures at 1 °C for 180 min in reserpine-induced hypothermia mice, administered intravenously [2] [µmol/kg] | acute rise of the blood glucose level and acute fall by the rebound ([3]; result in words, general description) | blood glucose level as a percentage compared to the baseline level [3, 4] [%] | blood glucose level as a percentage compared to the baseline level ([3]; time 5 min) [%] | blood glucose level as a percentage compared to the baseline level ([3]; time 15 min) [%] | blood glucose level as a percentage compared to the baseline level ([3]; time 30 min) [%] | blood glucose level as a percentage compared to the baseline level ([3]; time 60 min) [%] | blood glucose level as a percentage compared to the baseline level ([3]; time 120 min) [%] | blood glucose level as a percentage compared to the baseline level ([3]; time 180 min) [%] | blood glucose level as a percentage compared to the baseline level ([3]; time 240 min) [%] | blood glucose level as a percentage compared to the baseline level ([3]; time 300 min) [%] | blood glucose level as a percentage compared to the baseline level ([3]; time 360 min) [%] | blood glucose level as a percentage compared to the baseline level ([3]; time 420 min) [%] | blood glucose level as a percentage compared to the baseline level ([3]; time 480 min) [%] |
| --- | --- | --- | --- | --- | --- | --- | --- | --- | --- | --- | --- | --- | --- | --- | --- | --- |
| CC(C)OC(=O)CNC(=O)[C@@H]1CCCN1C(=O)[C@H](Cc1cscn1)NC(=O)[C@H]1NC(=O)O[C@H]1C [I-30] | 2.59 | – | – | – | – | – | – | – | – | – | – | – | – | – | – | – |
| NC(=O)[C@@H]1CCCN1C(=O)[C@H](Cc1cnc[nH]1)NC(=O)[C@@H]1CCC(=O)N1 [TRH, L-pyroglutamyl-L-histidyl-L-prolineamide] | 42.68 | 0.033 | 9.84 | acutely raises up the blood glucose level | 116.3 | 114.6 | 123.3 | 137.9 | 153.5 | 139.1 | 119.1 | 112.6 | 113.2 | 103.5 | 102.6 | 97.1 |
| C[C@H]1OC(=O)N[C@H]1C(=O)N[C@@H](Cc1cscn1)C(=O)N1CCC[C@H]1C(N)=O (mixture of isomers) [I-10, cis-L-5-methyl-2-oxo-oxazolidine-4-yl-carbonyl-3-(4-thiazolyl)-L-alanyl-L-prolineamide] | 1.14 | 0.025 | 0.11 | – | 107.7 | 119.9 | 104.3 | 109.1 | 112.1 | 126.5 | 105.3 | 110.9 | 104.0 | 100.4 | 102.6 | 111.8 |
| CN1C(=O)C[C@@H](C(=O)N[C@@H](Cc2cscn2)C(=O)N2CSC[C@H]2C(N)=O)NC1=O [I-5] | 1.22 | – | – | – | – | – | – | – | – | – | – | – | – | – | – | – |
| C[C@H]1OC(=O)N(CN2CCOCC2)[C@H]1C(=O)N[C@@H](Cc1cscn1)C(=O)N1CCC[C@H]1C(N)=O (mixture of isomers) [I-40, cis-L-3-morpholinomethyl-5-methyl-2-oxo-oxazolidine-4-yl-carbonyl-3-(4-thiazolyl)-L-alanyl-L-prolineamide] | 1.65 | – | – | – | – | – | – | – | – | – | – | – | – | – | – | – |
| C[C@@H]1OC(=O)N[C@@H]1C(=O)N[C@@H](Cc1cscn1)C(=O)N1CSC[C@H]1C(N)=O [I-11] | 2.03 | – | – | – | – | – | – | – | – | – | – | – | – | – | – | – |

Source: EP0933379B1, “NOVEL PEPTIDE DERIVATIVES HAVING THIAZOLYL-ALANINE RESIDUE” (SHIONOGI & CO., LTD., priority 1996, dated 1998)
